Assay [1] in a line: Inhibition of PAF-induced platelet aggregation in human platelet-rich plasma incubated for 1 min followed by PAF addition. In kind it is functional.
The nature of assay [2]: Inhibition of thrombin-induced platelet aggregation in human platelet-rich plasma incubated for 1 min followed by thrombin addition. The class given is functional.
A short description of assay [3]: Inhibition of collagen-induced platelet aggregation in human platelet-rich plasma incubated for 1 min followed by collagen addition. The class given is functional.
Assay [4] in a line: Inhibition of arachidonic acid-induced platelet aggregation in human platelet-rich plasma incubated for 1 min followed by arachidonic acid addition. The class given is functional, cell-based.
The nature of assay [5]: Antagonist activity at PAR4 in cynomolgus monkey whole blood assessed as inhibition of Ala-(L-4-F-Phe)-Pro-Gly-Trp-Leu-Val-Lys-Asn-Gly-induced platelet aggregation preincubated for 10 mins followed by Ala-(L-4-F-Phe)-Pro-Gly-Trp-Leu-Val-Lys-Asn-Gly stimulation. The class given is tissue-based. Particulars: Macaca fascicularis.
Assay [6] has as its system Cynomolgus monkey. The assay is described as follows: Antithrombotic activity in cynomolgus monkey model of electrolytic carotid artery thrombosis assessed as reduction in thrombus weight at 0.5 mg/kg, PO administered once daily for 3 days measured at 2 hrs post last dose relative to control. To be noted: time 3 day. In kind it is functional, Macaca fascicularis. More on the design: scale not given: the % may be the effect or the level left.

Assay [7] relates to Rhesus monkey. The assay is described as follows: Antithrombotic activity in monkey model of electrolytic carotid artery thrombosis assessed as reduction in thrombus weight at 0.1 mg/kg administered as single dose measured at 2 hrs post dose. The class given is functional, Macaca mulatta. More on the design: scale not given: the % may be the effect or the level left.
Assay [8] deals with Rhesus monkey. The assay is described as follows: Antithrombotic activity in monkey assessed as increase in mesenteric artery bleeding time at 0.5 mg/kg administered as single dose cotreated with aspirin measured at 2 hrs post dose relative to control. The class given is functional, Macaca mulatta.
Assay [9] deals with Rhesus monkey. As to the kind of experiment: Antithrombotic activity in monkey assessed as increase in mesenteric artery bleeding time at 0.1 mg/kg administered as single dose cotreated with aspirin measured at 2 hrs post dose relative to control. The class given is functional, Macaca mulatta.
The subject of assay [10] is Rhesus monkey. The assay is described as follows: Antithrombotic activity in monkey model of electrolytic carotid artery thrombosis assessed as reduction in thrombus weight at 0.5 mg/kg administered as single dose measured at 2 hrs post dose relative to control. More on the design: scale not given: the % may be the effect or the level left. In kind it is functional, Macaca mulatta.

For assay [11], the target named is T1, Proteinase-activated receptor 4 (Homo sapiens, UniProt Q96RI0).
T1 sequence (Q96RI0 whole entry): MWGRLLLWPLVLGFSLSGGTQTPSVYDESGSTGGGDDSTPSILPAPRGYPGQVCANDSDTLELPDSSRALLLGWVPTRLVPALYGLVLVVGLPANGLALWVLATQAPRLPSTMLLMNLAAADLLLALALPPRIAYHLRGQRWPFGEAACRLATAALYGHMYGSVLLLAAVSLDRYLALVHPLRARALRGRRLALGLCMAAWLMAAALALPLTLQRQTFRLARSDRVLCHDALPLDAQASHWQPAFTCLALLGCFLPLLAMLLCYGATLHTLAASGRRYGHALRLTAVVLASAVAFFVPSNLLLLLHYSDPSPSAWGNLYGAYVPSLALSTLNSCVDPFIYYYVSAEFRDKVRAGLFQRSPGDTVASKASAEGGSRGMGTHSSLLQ
As to the kind of experiment: Inhibition of human PAR4 expressed in HEK293 cells assessed as Ala-(L-4-F-Phe)-Pro-Gly-Trp-Leu-Val-Lys-Asn-Gly-induced inhibition of calcium mobilization preincubated for 30 mins followed by Ala-(L-4-F-Phe)-Pro-Gly-Trp-Leu-Val-Lys-Asn-Gly stimulation by FLIPR method. In kind it is functional, cell-based.

In assay [12] the test system is Rhesus monkey. The assay is described as follows: Antithrombotic activity in monkey model of electrolytic carotid artery thrombosis assessed as reduction in thrombus weight at 0.05 mg/kg administered as single dose measured at 2 hrs post dose. The class given is functional, Macaca mulatta. Also on record: scale not given: the % may be the effect or the level left.

The subject of assay [13] is Rhesus monkey. The assay is described as follows: Antithrombotic activity in monkey assessed as increase in mesenteric artery bleeding time at 0.05 to 0.5 mg/kg administered as single dose measured at 2 hrs post dose relative to control. The class given is functional, Macaca mulatta. Particulars: dose 0.05-0.5 mg/kg.
The subject of assay [14] is Rhesus monkey. As to the kind of experiment: Antithrombotic activity in monkey model of electrolytic carotid artery thrombosis assessed as reduction in thrombus weight at 0.1 mg/kg administered as single dose cotreated with aspirin measured at 2 hrs post dose relative to control. In kind it is functional, Macaca mulatta. Also on record: scale not given: the % may be the effect or the level left.

Assay [15] deals with Rhesus monkey. The assay is described as follows: Antithrombotic activity in monkey model of electrolytic carotid artery thrombosis assessed as reduction in thrombus weight at 0.5 mg/kg administered as single dose cotreated with aspirin measured at 2 hrs post dose relative to control. The class given is functional, Macaca mulatta. More on the design: scale not given: the % may be the effect or the level left.

The subject of assay [16] is Rhesus monkey. As to the kind of experiment: Antithrombotic activity in monkey assessed as increase in mesenteric artery bleeding time at 4 mg/kg/hr, iv administered as single dose measured at 2 hrs post dose relative to control. The class given is functional, Macaca mulatta.
In assay [17] the test system is Cynomolgus monkey. As to the kind of experiment: Antithrombotic activity in cynomolgus monkey model of electrolytic carotid artery thrombosis assessed as reduction in thrombus weight at 4 mg/kg/hr, iv administered as single dose measured at 2 hrs post dose relative to control. More on the design: scale not given: the % may be the effect or the level left. The class given is functional, Macaca fascicularis.

Assay [18] deals with Cynomolgus monkey. As to the kind of experiment: Antithrombotic activity in cynomolgus monkey model of electrolytic carotid artery thrombosis assessed as increase in mesenteric bleeding time at 1 mg/kg, PO administered once daily for 3 days measured at 2 hrs post last dose. In kind it is functional, Macaca fascicularis. Particulars: time 3 day.
The test system of assay [19] is Cynomolgus monkey. As to the kind of experiment: Antithrombotic activity in cynomolgus monkey model of electrolytic carotid artery thrombosis assessed as increase in provoked kidney bleeding time at 1 mg/kg, PO administered once daily for 3 days measured at 2 hrs post last dose. In kind it is functional, Macaca fascicularis. Particulars: time 3 day.

The structures appear in SMILES notation.

For the molecule `COC(=O)c1ccc(-c2nn(-c3ccccc3)c3ccccc23)o1`, the IC50 in [1] and in assay [2] was over 270 µM throughout.

As to `COC(=O)c1ccc(-c2nn(Cc3ccccc3)c3cc(C)ccc23)o1`, the IC50 in [1] worked out at 76.3 µM; in assay [3], 59.3 µM; in assay [2], 126 µM; in assay [4], 32.4 µM.

In assay [4], `CCOC(=O)c1ccc(-c2nn(Cc3ccccc3)c3ccccc23)cc1` returned an IC50 of 185 µM.

On to `O=C(O)c1ccc(-c2nn(Cc3ccccc3)c3ccccc23)cc1`, for which the IC50 in [1] is 235 µM; in [3] it was 148 µM; in assay [2] it was over 270 µM; in assay [4], 156 µM.

Consider `COC(=O)c1ccc(-c2nn(Cc3ccccc3)c3cc4c(cc23)OCO4)o1`, for which the half-maximal inhibitory concentration (IC50) was over 270 µM in assay [1], 157 µM in assay [3], over 270 µM in [2] and 92.3 µM in assay [4].

`CCOC(=O)c1cccc(-c2nn(Cc3ccccc3)c3ccccc23)c1`: the IC50 in assay [1] and in assay [2] was over 270 µM throughout.

As to `COc1cc(OCc2nc(N3CCOCC3)sc2C)c2cc(-c3cn4nc(OC)sc4n3)oc2c1`, the IC50 in assay [5] is 0.0021 µM. Moreover, the Activity in the assay on Cynomolgus monkey [6] came out at 50%.

For `COc1cc(OCc2nc(-c3ccc(C(=O)N(C)C)cc3)sc2C)c2cc(-c3cn4nc(OC)sc4n3)oc2c1`, the Activity in the assay on Rhesus monkey [7] was 63%; in the assay on Rhesus monkey [10], 88%; with Rhesus monkey [12], 36%. For the same molecule, the “fold change (FC)” value is 3 with Rhesus monkey [8], 2.6 in the assay with Rhesus monkey [9] and “<=1.2” in the assay on Rhesus monkey [13]. The concentration for half-maximal inhibition (IC50) in assay [11] was 0.00045 µM.

In the case of `COc1cnc2c(-c3nc4cc(F)c(O[C@@H]5CCC(C)(C)[C@@H]5OC(=O)Nc5ccnc(C)n5)cc4s3)cc(C)cc2n1`, the IC50 in assay [11] is 0.0024 µM.

`CC(=O)Oc1ccccc1C(=O)O` [ASPIRIN]: the values for the Activity in the assay on Rhesus monkey [14], in the assay with Rhesus monkey [15] and in the assay on Cynomolgus monkey [17] were 50%, 89% and 12%, respectively. Besides, the “fold change (FC)” value with Rhesus monkey [16] is recorded as 2.2.

In the case of `COC(=O)[C@H](c1ccccc1Cl)N1CCc2sccc2C1` [CLOPIDOGREL], the “fold change (FC)” value in the assay with Cynomolgus monkey [18] and with Cynomolgus monkey [19] was over 10 throughout.

The values above are taken from ChEMBL document CHEMBL4732062, “Protease activated receptor 4 (PAR4) antagonists: Research progress on small molecules in the field of antiplatelet agents” (Eur J Med Chem, 2021).
